Experimental findings from patent US9376376B2, “Substitute diphenylamine compounds use thereof as antitumor agents” (SINOCHEM CORPORATION, priority 2012, dated 2016) are described below.

SMILES strings stand for the structures.

The subject of one assay is lung cancer A549 cell. Kind of assay: In vitro cell inhibition assay (MTT method), A549. The format is cell-based, human. Conditions: 48 h incubation. How it is done:
(§1) The human cancer cell lines used for this assay were lung cancer A549 and leukemia HL-60.
(§2) The A549 or HL-60 cells were picked up from cell incubator, after washed for twice using PBS, cells were digested by 0.25% trypsin, and then add medium to terminate the digestion. After cells were collected using centrifuge and re-suspended, count cells under inverted microscope and add medium to make a density was 5×10^4 cells/mL. After 100 μL aliquots were added to each well of 96-well microtiter plates, cells were cultured in 5% incubator for overnight at 37° C., then the different concentration compounds were added to each well. After incubation for 48 h, MTT solution was added to each well and plates were then incubated for 4 h. The MTT tetrazolium was reduced to formazan by living cells. Then the formazan crystals were dissolved though adding DMSO to each well. The absorbance was read at 570 nm with a microplate reader.
(In general: Formazan colour is commonly taken as a measure of viable cells.)

A further assay concerns leukemia HL-60 cells. Kind of assay: In vitro cell inhibition assay (MTT method), HL-60. The format is cell-based, human. Conditions: 48 h. How it is done: as §1, §2

Regarding `Cc1c(Cl)c([N+](=O)[O-])cc([N+](=O)[O-])c1Nc1c(F)cccc1F` [Compound 22-33], the “Proliferation inhibitory effect of the compounds on A549 cell (% of Control)” value in the assay with lung cancer A549 cell (0.01 μM) is given as −1.6 % of Control; with lung cancer A549 cell (0.1 μM) it was −1.1 % of Control; in the assay on lung cancer A549 cell (1 μM) it was 61.3 % of Control; in the assay on lung cancer A549 cell (10 μM), 78.7 % of Control; in the assay on lung cancer A549 cell (100 μM), 90.3 % of Control. For the same compound, the “Proliferation inhibitory effect of the compounds on HL-60 cells (% of Control)” value with leukemia HL-60 cells (concentration 0.01 μM) is listed as −4.9 % of Control; in the assay on leukemia HL-60 cells (concentration 0.1 μM), −1.8 % of Control; in the assay on leukemia HL-60 cells (concentration 1 μM), 54.3 % of Control; with leukemia HL-60 cells (concentration 10 μM) it was 66.2 % of Control; in the assay with leukemia HL-60 cells (concentration 100 μM) it was 81.2 % of Control.
On to `N#Cc1ccc(Nc2c(Cl)c(Cl)c(C#N)c(Cl)c2C#N)cc1` [Compound 6-23], for which the “Proliferation inhibitory effect of the compounds on A549 cell (% of Control)” value in the assay with lung cancer A549 cell (0.01 μM) is −0.8 % of Control; in the assay on lung cancer A549 cell (0.1 μM) it was −1.8 % of Control; in the assay with lung cancer A549 cell (1 μM), 2.5 % of Control; with lung cancer A549 cell (10 μM), 93.7 % of Control; in the assay with lung cancer A549 cell (100 μM), 93.8 % of Control. The “Proliferation inhibitory effect of the compounds on HL-60 cells (% of Control)” value in the assay on leukemia HL-60 cells (concentration 0.01 μM) is listed as 2.3 % of Control; with leukemia HL-60 cells (concentration 0.1 μM) it was 10.8 % of Control; in the assay on leukemia HL-60 cells (concentration 1 μM), 23.1 % of Control; with leukemia HL-60 cells (concentration 10 μM) it was 93.2 % of Control; in the assay on leukemia HL-60 cells (concentration 100 μM) it was 90.6 % of Control.
Regarding `Cc1cc([N+](=O)[O-])cc([N+](=O)[O-])c1Nc1c(Cl)cc(Cl)cc1C#N` [Compound 30-120], the “Proliferation inhibitory effect of the compounds on A549 cell (% of Control)” value is −1.5 % of Control in the assay on lung cancer A549 cell (0.01 μM); −0.9 % of Control in the assay on lung cancer A549 cell (0.1 μM); −0.7 % of Control with lung cancer A549 cell (1 μM); 84.0 % of Control in the assay on lung cancer A549 cell (10 μM); 92.0 % of Control with lung cancer A549 cell (100 μM). Further, the “Proliferation inhibitory effect of the compounds on HL-60 cells (% of Control)” value in the assay on leukemia HL-60 cells (concentration 0.01 μM) is given as 23.6 % of Control; with leukemia HL-60 cells (concentration 0.1 μM), 39.2 % of Control; in the assay with leukemia HL-60 cells (concentration 1 μM) it was 70.6 % of Control; in the assay on leukemia HL-60 cells (concentration 10 μM), 95.9 % of Control; in the assay with leukemia HL-60 cells (concentration 100 μM) it was 95.7 % of Control.
`Cc1c(Cl)c([N+](=O)[O-])cc([N+](=O)[O-])c1Nc1c(Cl)cc(C(F)(F)F)cc1Cl` [Compound 22-101]: the “Proliferation inhibitory effect of the compounds on A549 cell (% of Control)” value in the assay on lung cancer A549 cell (0.01 μM) is listed as 13.7 % of Control; in the assay with lung cancer A549 cell (0.1 μM), 21.4 % of Control; in the assay with lung cancer A549 cell (1 μM), 19.1 % of Control; in the assay with lung cancer A549 cell (10 μM) it was 66.4 % of Control; with lung cancer A549 cell (100 μM) it was 97.5 % of Control. The “Proliferation inhibitory effect of the compounds on HL-60 cells (% of Control)” value in the assay on leukemia HL-60 cells (concentration 0.01 μM) is given as 8.3 % of Control; in the assay on leukemia HL-60 cells (concentration 0.1 μM), 5.5 % of Control; in the assay on leukemia HL-60 cells (concentration 1 μM), 48.6 % of Control; in the assay on leukemia HL-60 cells (concentration 10 μM), 73.4 % of Control; in the assay with leukemia HL-60 cells (concentration 100 μM), 64.7 % of Control.
Regarding `Cc1cc([N+](=O)[O-])cc([N+](=O)[O-])c1Nc1c(Cl)cc(C#N)cc1Cl` [Compound 30-104], the “Proliferation inhibitory effect of the compounds on A549 cell (% of Control)” value in the assay on lung cancer A549 cell (0.01 μM) was 2.4 % of Control; in the assay on lung cancer A549 cell (0.1 μM) it was 1.1 % of Control; with lung cancer A549 cell (1 μM) it was −0.1 % of Control; with lung cancer A549 cell (10 μM) it was 78.4 % of Control; in the assay with lung cancer A549 cell (100 μM) it was 91.8 % of Control. For the same compound, the “Proliferation inhibitory effect of the compounds on HL-60 cells (% of Control)” value in the assay on leukemia HL-60 cells (concentration 0.01 μM) is listed as 21.8 % of Control; in the assay on leukemia HL-60 cells (concentration 0.1 μM), 31.6 % of Control; with leukemia HL-60 cells (concentration 1 μM), 65.3 % of Control; with leukemia HL-60 cells (concentration 10 μM), 88.0 % of Control; with leukemia HL-60 cells (concentration 100 μM) it was 93.3 % of Control.
